In US11071731B2, “Allosteric modulators of the mu opioid receptor” (Chiromics, LLC, priority 2017, dated 2021):

Experiments:
mu opioid receptor (MOR) [1] = molecular target: T1, mu opioid receptor (MOR) (Homo sapiens, UniProt P35372); test: PathHunter β-arrestin recruitment assay, PAM mode with EC20 endomorphin-1; type: cell-based
In short: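 Enzyme fragment complementation read-out: β-gal ED fragment fused to receptor, EA fused to β-arrestin, recruitment restoring β-gal activity detected by chemiluminescence. EC50 and percent maximal response derived for each compound.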

mu opioid receptor (MOR) [2] = molecular target: T1, mu opioid receptor (MOR); test: Hit Hunter cAMP signaling assay (adenylyl cyclase inhibition), PAM mode with EC20 endomorphin-1; type: cell-based
[3] = maximal response for β-arrestin recruitment
[4] = β-arrestin recruitment, read-out: β-arr. EC50
[5] = adenylyl cyclase inhibition, read-out: cAMP EC50
[6] = maximal response for adenylyl cyclase inhibition
[7] = cAMP EC50, adenylyl cyclase inhibition
[8] = maximal response, β-arrestin recruitment
[9] = maximal response, adenylyl cyclase inhibition
[10] = β-arrestin recruitment, activity switching by MOR PAMs
[11] = β-arrestin recruitment, activity switching by MOR PAMs, read-out: β-arrestin EC50
[12] = adenylyl cyclase inhibition, activity switching by MOR PAMs
[13] = adenylyl cyclase inhibition, activity switching by MOR PAMs, read-out: cAMP EC50

T1 sequence (P35372 whole entry, the tested form may be a part): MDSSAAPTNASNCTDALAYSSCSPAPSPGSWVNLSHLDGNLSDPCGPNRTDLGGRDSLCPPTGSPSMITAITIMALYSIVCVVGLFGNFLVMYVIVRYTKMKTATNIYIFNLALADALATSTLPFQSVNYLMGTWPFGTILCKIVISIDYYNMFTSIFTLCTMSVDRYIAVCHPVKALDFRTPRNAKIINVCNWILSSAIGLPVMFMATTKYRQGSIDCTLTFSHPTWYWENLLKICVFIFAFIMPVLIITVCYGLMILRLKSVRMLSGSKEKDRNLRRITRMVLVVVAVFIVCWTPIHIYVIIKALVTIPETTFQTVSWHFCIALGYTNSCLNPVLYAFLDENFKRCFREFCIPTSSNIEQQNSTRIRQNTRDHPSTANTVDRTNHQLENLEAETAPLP

| Structure (SMILES) | β-arr Max. Resp. (mu opioid receptor (MOR) [1]; [3]) | EC50 (mu opioid receptor (MOR) [1]; [4]) [nM] | EC50 (mu opioid receptor (MOR) [2]; [5]) [nM] | cAMP Max. Resp. (mu opioid receptor (MOR) [2]; [6]) | EC50 (mu opioid receptor (MOR) [2]; [7]) [nM] | also measured |
| --- | --- | --- | --- | --- | --- | --- |
| [O-][S+]1CCN(c2nc(Cl)ncc2F)C(c2cc(F)cc(C(F)(F)F)c2)C1 (mixture of isomers) [Compound 302] | E (E represents a maximal response of 40-60%) | > 2100 | > 2100 | D (D represents a maximal response of < 40%) | – | – |
| O=S(=O)(c1ccc(Cl)cc1)N1CCOCC1c1ccc(F)c(Br)c1 (racemic) [Compound 185] | F (F represents a maximal response of > 60%) | 700 to 2100 | > 2100 | D (D represents a maximal response of < 40%) | – | – |
| Fc1ccc(Cl)cc1CN1CCOCC1c1cccc(C(F)(F)F)c1 (racemic) [Compound 193] | F (F represents a maximal response of > 60%) | 700 to 2100 | > 2100 | F (F represents a maximal response of > 60%) | – | – |
| O=S(=O)(c1ccc(Cl)cc1)N1CCCCC1c1ccc(Cl)c(C(F)(F)F)c1 (single isomer, unassigned) [compound 220] | F (F represents a maximal response of > 60%) | > 2100 | 700 to 2100 | D (D represents a maximal response of < 40%) | – | – |
| Cc1ccc(C(F)(F)F)cc1C1CCCCN1c1nc(Cl)ncc1F (centres unmarked) [compound 134] | F (F represents a maximal response of > 60%) | > 2100 | – | D (D represents a maximal response of < 40%) | > 2100 | – |
| Fc1ccc(Cl)nc1N1CCCCC1c1ccc(C(F)(F)F)nc1 (centres unmarked) [compound 415] | D (D represents a maximal response of < 40%) | < 700 | – | D (D represents a maximal response of < 40%) | < 700 | – |
| Fc1cc(Cl)cc(CN2CCCCC2c2ccc(F)c(Cl)c2)c1 (centres unmarked) [compound 155] | F (F represents a maximal response of > 60%) | 700 to 2100 | – | D (D represents a maximal response of < 40%) | 700 to 2100 | – |
| Fc1c(Cl)cccc1C1CCCCN1c1ccnc(Cl)n1 (centres unmarked) [compound 405] | D (D represents a maximal response of < 40%) | < 700 | – | D (D represents a maximal response of < 40%) | < 700 | – |
| CCC1CCCN(c2nc(Cl)ncc2F)C1c1ccc(OC)c(Br)c1 (centres unmarked) [compound 248] | F (F represents a maximal response of > 60%) | > 2100 | > 2100 | E (E represents a maximal response of 40-60%) | – | – |
| O=S(=O)(c1ccc(Cl)cc1F)N1C2CCC(C2)C1c1ccc(F)c(Br)c1 (centres unmarked) [Compound 184] | F (F represents a maximal response of > 60%) | > 2100 | > 2100 | D (D represents a maximal response of < 40%) | – | – |
| CN(C)c1cccc(C2CCCCN2c2nc(N(C)C)ncc2F)n1 (centres unmarked) [compound 243] | F (F represents a maximal response of > 60%) | > 2100 | – | E (E represents a maximal response of 40-60%) | > 2100 | – |
| COc1cnc(Cl)nc1N1CCCCC1c1cccc(C(F)(F)F)c1 (centres unmarked) [compound 361] | D (D represents a maximal response of < 40%) | < 700 | – | D (D represents a maximal response of < 40%) | < 700 | – |
| COc1ncc(F)c(N2CCCCC2c2cccc(F)n2)n1 (centres unmarked) [compound 272] | D (D represents a maximal response of < 40%) | > 2100 | – | F (F represents a maximal response of > 60%) | > 2100 | – |
| FC(F)(F)c1cccc(C2CCCCN2c2cccc(Cl)c2)n1 (centres unmarked) [compound 459] | – | > 2100 | > 2100 | – | – | β-arr Max. Resp. (mu opioid receptor (MOR) [1]; [8]): F (F represents a maximal response of > 60%); cAMP Max. Resp. (mu opioid receptor (MOR) [2]; [9]): D (D represents a maximal response of < 40%) |
| COc1ccc(C2C(F)CCCN2S(=O)(=O)c2ccc(Cl)cc2)cc1Br (centres unmarked) [compound 219] | F (F represents a maximal response of > 60%) | 700 to 2100 | – | F (F represents a maximal response of > 60%) | < 700 | allosteric activity for β-arrestin recruitment (mu opioid receptor (MOR) [1]; EC20 endomorphin-1 concentration of 4.5 nM): low positive allosteric activity; signaling preference β-arrestin vs cAMP (mu opioid receptor (MOR) [1]; comparison of β-arrestin and cAMP assays): preferential signaling via cAMP over β-arrestin; allosteric activity for cAMP signaling (mu opioid receptor (MOR) [2]; EC20 endomorphin-1 concentration of 0.45 nM): high positive allosteric activity |
| Fc1cc(C2C3CCC(C3)N2c2nc(Cl)ncc2F)cc(C(F)(F)F)c1 (centres unmarked) [compound 139] | F (F represents a maximal response of > 60%) | > 2100 | – | E (E represents a maximal response of 40-60%) | > 2100 | – |
| Fc1cc(C2CCC(F)CN2c2nc(Cl)ncc2F)cc(C(F)(F)F)c1 (centres unmarked) [compound 313] | F (F represents a maximal response of > 60%) | > 2100 | 700 to 2100 | E (E represents a maximal response of 40-60%) | – | – |
| Fc1cnc(Cl)nc1N1CCCCC1c1ccccn1 (centres unmarked) [compound 329] | D (D represents a maximal response of < 40%) | < 700 | – | D (D represents a maximal response of < 40%) | < 700 | – |
| O=S(=O)(c1ccc(Cl)cc1)N1CCCCC1c1ccc(F)c(C(F)(F)F)c1 (racemic) [compound 55] | F (F represents a maximal response of > 60%) | > 2100 | 700 to 2100 | E (E represents a maximal response of 40-60%) | – | β-arrestin Max Response (mu opioid receptor (MOR) [1]; [10]): F (F represents a maximal response of >60%); EC50 (mu opioid receptor (MOR) [1]; [11]): > 2100 nM; cAMP Max Resp. (mu opioid receptor (MOR) [2]; [12]): D (D represents a maximal response of < 40%); EC50 (mu opioid receptor (MOR) [2]; [13]): > 2100 nM |
| Fc1ccc(C2CC(C(F)(F)F)CN2c2nc(Cl)ncc2F)cc1Cl (centres unmarked) [compound 476] | – | > 2100 | > 2100 | – | – | β-arr Max. Resp. (mu opioid receptor (MOR) [1]; [8]): E (E represents a maximal response of 40-60%); cAMP Max. Resp. (mu opioid receptor (MOR) [2]; [9]): D (D represents a maximal response of < 40%) |
| Fc1ccc(C2CCCCN2c2nc(Cl)ncc2F)cc1 (centres unmarked) [compound 127] | F (F represents a maximal response of > 60%) | < 700 | – | E (E represents a maximal response of 40-60%) | 700 to 2100 | – |
| Fc1cccc(C2CCCCN2c2nc(Cl)ncc2F)n1 (centres unmarked) [compound 133] | F (F represents a maximal response of > 60%) | > 2100 | – | E (E represents a maximal response of 40-60%) | > 2100 | – |
| Fc1cnc(Cl)nc1N1CCOCC1c1cccc(C(F)(F)F)c1 (racemic) [Compound 188] | F (F represents a maximal response of > 60%) | > 2100 | 700 to 2100 | E (E represents a maximal response of 40-60%) | – | – |
| COc1ccc(C2CCCCN2c2nc(Cl)ncc2F)cc1OC (centres unmarked) [compound 294] | D (D represents a maximal response of < 40%) | > 2100 | – | F (F represents a maximal response of > 60%) | > 2100 | – |
| O=S(=O)(c1cccc(Cl)c1F)N1CCCCC1c1cccc(C(F)(F)F)c1 (centres unmarked) [Compound 28] | F (F represents a maximal response of > 60%) | 700 to 2100 | 700 to 2100 | D (D represents a maximal response of < 40%) | – | – |
| CS(=O)(=O)N1CCN(c2nc(Cl)ncc2F)C(c2cc(F)cc(C(F)(F)F)c2)C1 (racemic) [Compound 309] | E (E represents a maximal response of 40-60%) | > 2100 | > 2100 | D (D represents a maximal response of < 40%) | – | – |
| O=S(=O)(c1ccc(Cl)cc1)N1CCCCC1c1cccc(C(F)(F)F)c1 (centres unmarked) [compound 18] | F (F represents a maximal response of > 60%) | > 2100 | 700 to 2100 | D (D represents a maximal response of < 40%) | – | β-arrestin Max Response (mu opioid receptor (MOR) [1]; [10]): F (F represents a maximal response of >60%); EC50 (mu opioid receptor (MOR) [1]; [11]): > 2100 nM; cAMP Max Resp. (mu opioid receptor (MOR) [2]; [12]): D (D represents a maximal response of < 40%); EC50 (mu opioid receptor (MOR) [2]; [13]): > 2100 nM |
